Assay results from patent publication US11591341B2 (ALIGOS THERAPEUTICS, INC., priority 2019, dated 2023).

tested on: HBV; assay: HBV-DNA Antiviral Assay Using HepG2.117 Cells (intracellular HBV DNA by qPCR); type: cell-based, hepatitis B virus (genotype D); settings: Hepatitis B virus, HepG2.117
How it was run: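 Endpoint: qPCR copy number of intracellular HBV DNA after 3-day compound exposure, with inhibition set relative to the 2% DMSO control. The cells were doxycycline-free HepG2.117 carrying a Tet-off genotype D genome, dosed at nine 4-fold dilutions. A duplicate plate gave ATP-based viability (CC50).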

SMILES	EC50 [nM]
COc1ccc([C@@H](C)NC(=O)c2c3n(c(=O)n2-c2ccc(OC(C)C)cc2)CCN(C(=O)c2ccc(Br)c(Cl)c2)C3)c(F)c1 (stereo in doubt) [Example 245, 7-(4-bromo-3-chloro-benzoyl)-2-(4-isopropoxyphenyl)-3-oxo-N-[rac-(1R)-1-(2-fluoro-4-methoxy-phenyl)ethyl]-6,8-dihydro-5H-imidazo[1,5-a]pyrazine-1-carboxamide]	< 100
COc1ccc(-n2c(C(=O)NCc3ccccc3)c3n(c2=O)CCN(C(=O)c2ccc(Br)c(Cl)c2)C3)cc1 [Example 24, N-benzyl-7-(4-bromo-3-chloro-benzoyl)-2-(4-methoxyphenyl)-3-oxo-6,8-dihydro-5H-imidazo[1,5-a]pyrazine-1-carboxamide]	100 to 500
COc1ccc(-n2c(C(=O)NCc3ccccc3OC)c3n(c2=O)CCN(C(=O)c2ccc(Cl)c(Cl)c2)C3)cc1 [Example 115, 7-(3,4-dichlorobenzoyl)-2-(4-methoxyphenyl)-N-[(2-methoxyphenyl)methyl]-3-oxo-6,8-dihydro-5H-imidazo[1,5-a]pyrazine-1-carboxamide]	100 to 500
C[C@@H](NC(=O)c1c2n(c(=O)n1-c1ccc(OCC(F)(F)F)cc1)CCN(C(=O)c1ccc(Br)c(Cl)c1)C2)c1ccc(OCC(N)=O)cc1F (stereo in doubt) [Example 319, 7-(4-bromo-3-chloro-benzoyl)-3-oxo-N-[rac-(1R)-1-[4-(2-amino-2-oxo-ethoxy)-2-fluoro-phenyl]ethyl]-2-[4-(2,2,2-trifluoroethoxy)phenyl]-6,8-dihydro-5H-imidazo[1,5-a]pyrazine-1-carboxamide]	500 to 5000
COc1ccc(-n2c(C(=O)NCc3ccccc3)c3n(c2=O)CCN(c2ncnc4cc(Cl)ccc24)C3)cc1 [Example 117, N-benzyl-7-(7-chloroquinazolin-4-yl)-2-(4-methoxyphenyl)-3-oxo-6,8-dihydro-5H-imidazo[1,5-a]pyrazine-1-carboxamide]	> 5000
C[C@@H](NC(=O)c1c2n(c(=O)n1-c1ccc(OC3CC3)cc1)C[C@H](C)N(C(=O)c1ccc(Br)c(Cl)c1)C2)c1ccccc1F (mixture of isomers) [Example 322, (6SR)-7-(4-bromo-3-chloro-benzoyl)-2-[4-(cyclopropoxy)phenyl]-N-[(1R)-1-(2-fluorophenyl)ethyl]-6-methyl-3-oxo-6,8-dihydro-5H-imidazo[1,5-a]pyrazine-1-carboxamide]	100 to 500
COc1ccc(-n2c(C(=O)N[C@H](C)c3ccccc3)c3n(c2=O)CCN(C(=O)c2ccc(Cl)c(Cl)c2)C3)cc1 (stereo in doubt) [Example 68, 7-(3,4-dichlorobenzoyl)-2-(4-methoxyphenyl)-3-oxo-N-[rac-(1R)-1-phenylethyl]-6,8-dihydro-5H-imidazo[1,5-a]pyrazine-1-carboxamide]	500 to 5000
COc1ccc(-n2c(C(=O)NCc3ccccc3)c3n(c2=O)CCN(C(=O)c2cc4c(Cl)cccc4[nH]2)C3)cc1 [Example 56, N-benzyl-7-(4-chloro-1H-indole-2-carbonyl)-2-(4-methoxyphenyl)-3-oxo-6,8-dihydro-H-imidazo[1,5-a]pyrazine-1-carboxamide]	100 to 500
COc1ccc(-n2c(C(=O)NCc3ccncc3)c3n(c2=O)CCN(C(=O)c2ccc(Cl)c(Cl)c2)C3)cc1 [Example 57, 7-(3,4-dichlorobenzoyl)-2-(4-methoxyphenyl)-3-oxo-N-(4-pyridylmethyl)-6,8-dihydro-5H-imidazo[1,5-a]pyrazine-1-carboxamide]	> 5000
COc1cccc(-n2c(C(=O)NCc3ccccc3)c3n(c2=O)CCN(C(=O)c2ccc(Br)c(Cl)c2)C3)c1 [Example 41, N-benzyl-7-(4-bromo-3-chloro-benzoyl)-2-(3-methoxyphenyl)-3-oxo-6,8-dihydro-5H-imidazo[1,5-a]pyrazine-1-carboxamide]	500 to 5000
COc1ccc([C@@H](C)NC(=O)c2c3n(c(=O)n2-c2ccc(OC)cc2)CCN(C(=O)c2ccc(Br)c(Cl)c2)C3)cc1 (stereo in doubt) [Example 72, 7-(4-bromo-3-chloro-benzoyl)-2-(4-methoxyphenyl)-3-oxo-N-[rac-(1R)-1-(4-methoxyphenyl)ethyl]-6,8-dihydro-5H-imidazo[1,5-a]pyrazine-1-carboxamide]	500 to 5000
COc1ccc(CNC(=O)c2c3n(c(=O)n2-c2ccc(OCC(F)(F)F)cc2)CCN(C(=O)c2ccc(Br)c(Cl)c2)C3)c(OC(F)F)c1 [Example 266]	100 to 500
COc1ccc(CNC(=O)c2c3n(c(=O)n2-c2ccc(OCC(F)(F)F)cc2)CCN(C(=O)c2ccc(Br)c(Cl)c2)C3)c(F)c1 [Example 244, 7-(4-bromo-3-chloro-benzoyl)-N-[(2-fluoro-4-methoxy-phenyl)methyl]-3-oxo-2-[4-(2,2,2-trifluoroethoxy)phenyl]-6,8-dihydro-5H-imidazo[1,5-a]pyrazine-1-carboxamide]	100 to 500
O=C(NCc1ccccc1-c1ncccn1)c1c2n(c(=O)n1-c1ccc(-n3cccn3)cc1)CCN(C(=O)c1ccc(Br)c(Cl)c1)C2 [Example 429, 7-(4-bromo-3-chloro-benzoyl)-3-oxo-2-(4-pyrazol-1-ylphenyl)-N-[(2-pyrimidin-2-ylphenyl)methyl]-6,8-dihydro-5H-imidazo[1,5-a]pyrazine-1-carboxamide]	< 100
COc1ccc(-n2c(C(=O)NCc3ccccc3)c3n(c2=O)C[C@H](C)N(C(=O)c2ccc(Br)c(Cl)c2)C3)cc1 (racemic) [Example 199, rac-(6S)-N-benzyl-7-(4-bromo-3-chloro-benzoyl)-2-(4-methoxyphenyl)-6-methyl-3-oxo-6,8-dihydro-5H-imidazo[1,5-a]pyrazine-1-carboxamide]	100 to 500
C[C@H](NC(=O)c1c2n(c(=O)n1-c1ccc(OCC(F)(F)F)cc1)CCN(C(=O)c1ccc(Br)c(Cl)c1)C2)c1cccc2nccnc12 (stereo in doubt) [Example 384, 7-(4-bromo-3-chloro-benzoyl)-3-oxo-N-[rac-(1S)-1-quinoxalin-5-ylethyl]-2-[4-(2,2,2-trifluoroethoxy)phenyl]-6,8-dihydro-5H-imidazo[1,5-a]pyrazine-1-carboxamide]	100 to 500
O=C(NCc1ccccc1)c1c2n(c(=O)n1-c1ccc3c(c1)OCO3)CCN(C(=O)c1ccc(Cl)c(Cl)c1)C2 [Example 88, 2-(1,3-benzodioxol-5-yl)-N-benzyl-7-(3,4-dichlorobenzoyl)-3-oxo-6,8-dihydro-5H-imidazo[1,5-a]pyrazine-1-carboxamide]	500 to 5000
Cc1ccnn1-c1ccc(-n2c(C(=O)NCc3ccccc3)c3n(c2=O)CCN(C(=O)c2ccc(Br)c(Cl)c2)C3)cc1 [Example 456, N-benzyl-7-(4-bromo-3-chloro-benzoyl)-2-[4-(5-methylpyrazol-1-yl)phenyl]-3-oxo-6,8-dihydro-5H-imidazo[1,5-a]pyrazine-1-carboxamide]	500 to 5000
C[C@H](NC(=O)c1c2n(c(=O)n1-c1ccc(OC3CC3)cc1)CCN(C(=O)c1ccc(Br)c(Cl)c1)C2)c1ccc(OCC(N)=O)cc1F (stereo in doubt) [Example 315, 7-(4-bromo-3-chloro-benzoyl)-2-[4-(cyclopropoxy)phenyl]-3-oxo-N-[rac-(1R)-1-[4-(2-amino-2-oxo-ethoxy)-2-fluoro-phenyl]ethyl]-6,8-dihydro-5H-imidazo[1,5-a]pyrazine-1-carboxamide]	500 to 5000
